Assay results: patent US20240269304A1, “BCL-XL INHIBITOR ANTIBODY-DRUG CONJUGATES AND METHODS OF USE THEREOF” (Novartis AG, priority 2020, published 2024)
Like-named read-outs stand apart in the source and are kept apart here.

Test system: H1650 cells
Assay: CellTiterGlo (CTG) cell viability, 3D, 120 h, H1650 (Example 8)
Format: cell-based, human
Details: Homo sapiens, NCI-H1650, H1650 3D
Procedure: H1650 cells were cultivated in RPMI supplemented with 10% heat inactivated fetal bovine serum, penicillin (100 IU/ml), streptomycin (100 μg/ml) and L-glutamine (2 mM). Cell lines were cultured at 37° C. in a humidified atmosphere containing 5% 002. Cells were seeded in 96 microwell round bottom plates (96 microwell Low attachment plates , Costar reference 7007) and exposed to the payloads or ADCs for 120 h (serially diluted; 9 concentrations each, duplicates). Effects of payloads or ADCs on cell viability were assessed after 5 days of incubation at 37° C./5% CO2 by quantification of cellular ATP levels using CellTiterGlo at 75 μL reagent/well. All the conditions were tested in duplicates. Luminescence was quantified on a multipurpose plate reader. IC50S were calculated using standard four-parametric curve fitting. […] Each experiment was performed at least twice, with results being reproducible.

[1] = experiment n1, read-out: H1650 3D CTG IC50 n1
[2] = experiment n2, read-out: H1650 3D CTG IC50 n2
[3] = mean of n1 and n2, read-out: H1650 3D CTG IC50 Mean of n1 and n2

Row | IC50 [1] [nM] | IC50 [2] [nM] | IC50 [3] [nM] | SMILES
1 | 6.15 | 6.88 | 6.51 | Cc1c(Nc2nc3ccccc3s2)nnc2c1CCCN2c1ccc(-c2cnn(CC34CC5(C)CC(C)(CC(CCCN(C)CC(=O)O)(C5)C3)C4)c2C)c(C(=O)O)n1 [P55, 6-[3-(1,3-benzothiazol-2-ylamino)-4-methyl-6,7-dihydro-5H-pyrido[2,3-c]pyridazin-8-yl]-3-[1-[[3-[3-[carboxymethyl(methyl)amino]propyl]-5,7-dimethyl-1-adamantyl]methyl]-5-methyl-pyrazol-4-yl]pyridine-2-carboxylic acid]
2 | 13.9 | 2.95 | 8.43 | Cc1c(Nc2nc3ccccc3s2)nnc2c1CCCN2c1ccc(-c2cnn(CC34CC5(C)CC(C)(CC(CCCN(C)CCC(=O)O)(C5)C3)C4)c2C)c(C(=O)O)n1 [P56, 6-[3-(1,3-benzothiazol-2-ylamino)-4-methyl-6,7-dihydro-5H-pyrido[2,3-c]pyridazin-8-yl]-3-[1-[[3-[3-[2-carboxyethyl(methyl)amino]propyl]-5,7-dimethyl-1-adamantyl]methyl]-5-methyl-pyrazol-4-yl]pyridine-2-carboxylic acid]
3 | 6.75 | 14.3 | 10.5 | Cc1c(Nc2nc3ccccc3s2)nnc2c1CCCN2c1ccc(-c2cnn(CC34CC5(C)CC(C)(C3)CC(OCCN(C)CCCC(=O)O)(C5)C4)c2C)c(C(=O)O)n1 [P57, 6-[3-(1,3-benzothiazol-2-ylamino)-4-methyl-6,7-dihydro-5H-pyrido[2,3-c]pyridazin-8-yl]-3-[1-[[3-[2-[3-carboxypropyl(methyl)amino]ethoxy]-5,7-dimethyl-1-adamantyl]methyl]-5-methyl-pyrazol-4-yl]pyridine-2-carboxylic acid]
4 | 5.73 | 9.08 | 7.41 | Cc1c(Nc2nc3ccccc3s2)nnc2c1CCCN2c1ccc(-c2cnn(CC34CC5(C)CC(C)(CC(CCCN(C)CCCC(=O)O)(C5)C3)C4)c2C)c(C(=O)O)n1 [P58, 6-[3-(1,3-benzothiazol-2-ylamino)-4-methyl-6,7-dihydro-5H-pyrido[2,3-c]pyridazin-8-yl]-3-[1-[[3-[3-[3-carboxypropyl(methyl)amino]propyl]-5,7-dimethyl-1-adamantyl]methyl]-5-methyl-pyrazol-4-yl]pyridine-2-carboxylic acid]
5 | 0.52 |  | 0.52 | Cc1c(Nc2nc3ccccc3s2)nnc2c1CCCN2c1ccc(-c2cnn(CC34CC5(C)CC(C)(C3)CC(OCCN(C)CCCO)(C5)C4)c2C)c(C(=O)O)n1 [P62, 6-[3-(1,3-benzothiazol-2-ylamino)-4-methyl-6,7-dihydro-5H-pyrido[2,3-c]pyridazin-8-yl]-3-[1-[[3-[2-[3-hydroxypropyl(methyl)amino]ethoxy]-5,7-dimethyl-1-adamantyl]methyl]-5-methyl-pyrazol-4-yl]pyridine-2-carboxylic acid]
6 | 3.73 | 2.03 | 2.88 | Cc1c(Nc2nc3cc(F)ccc3s2)nnc2c1CCCN2c1ccc(-c2cnn(CC34CC5(C)CC(C)(C3)CC(OCCN3CCCC3)(C5)C4)c2C)c(C(=O)O)n1 [P63, 3-[1-[[3,5-dimethyl-7-(2-pyrrolidin-1-ylethoxy)-1-adamantyl]methyl]-5-methyl-pyrazol-4-yl]-6-[3-[(5-fluoro-1,3-benzothiazol-2-yl)amino]-4-methyl-6,7-dihydro-5H-pyrido[2,3-c]pyridazin-8-yl]pyridine-2-carboxylic acid]

The remaining lines, values behind:

Row | SMILES | IC50 [1] [nM] | IC50 [2] [nM] | IC50 [3] [nM]
7 | Cc1ccc2sc(Nc3nnc4c(c3C)CCCN4c3ccc(-c4cnn(C[C@]56C[C@]7(C)C[C@](C)(C5)C[C@@](OCCN5CCCC5)(C7)C6)c4C)c(C(=O)O)n3)nc2c1 [P42, 3-[1-[[3,5-dimethyl-7-(2-pyrrolidin-1-ylethoxy)-1-adamantyl]methyl]-5-methyl-pyrazol-4-yl]-6-[4-methyl-3-[(5-methyl-1,3-benzothiazol-2-yl)amino]-6,7-dihydro-5H-pyrido[2,3-c]pyridazin-8-yl]pyridine-2-carboxylic acid] | 9.4 | 12.9 | 11.2
8 | COc1ccc2sc(Nc3nnc4c(c3C)CCCN4c3ccc(-c4cnn(C[C@]56C[C@]7(C)C[C@](C)(C5)C[C@@](OCCN5CCCC5)(C7)C6)c4C)c(C(=O)O)n3)nc2c1 [P43, 3-[1-[[3,5-dimethyl-7-(2-pyrrolidin-1-ylethoxy)-1-adamantyl]methyl]-5-methyl-pyrazol-4-yl]-6-[3-[(5-methoxy-1,3-benzothiazol-2-yl)amino]-4-methyl-6,7-dihydro-5H-pyrido[2,3-c]pyridazin-8-yl]pyridine-2-carboxylic acid] | 0.53 | 0.5 | 0.52
9 | Cc1c(Nc2nc3ccccc3s2)nnc2c1CCCN2c1ccc(-c2cnn(CC34CC5(C)CC(C)(C3)CC(OCCNCC(=O)O)(C5)C4)c2C)c(C(=O)O)n1 [P47, 6-[3-(1,3-benzothiazol-2-ylamino)-4-methyl-6,7-dihydro-5H-pyrido[2,3-c]pyridazin-8-yl]-3-[1-[[3-[2-(carboxymethylamino)ethoxy]-5,7-dimethyl-1-adamantyl]methyl]-5-methyl-pyrazol-4-yl]pyridine-2-carboxylic acid] | 6.54 | 7.35 | 6.95
10 | Cc1c(Nc2nc3ccccc3s2)nnc2c1CCCN2c1ccc(-c2cnn(CC34CC5(C)CC(C)(C3)CC(OCCN(C)CC(=O)O)(C5)C4)c2C)c(C(=O)O)n1 [P48, 6-[3-(1,3-benzothiazol-2-ylamino)-4-methyl-6,7-dihydro-5H-pyrido[2,3-c]pyridazin-8-yl]-3-[1-[[3-[2-[carboxymethyl(methyl)amino]ethoxy]-5,7-dimethyl-1-adamantyl]methyl]-5-methyl-pyrazol-4-yl]pyridine-2-carboxylic acid] | 2.27 | 2.79 | 2.53
11 | Cc1c(Nc2nc3ccccc3s2)nnc2c1CCCN2c1ccc(-c2cnn(CC34CC5(C)CC(C)(CC(CCCN(C)CCO)(C5)C3)C4)c2C)c(C(=O)O)n1 [P49, 6-[3-(1,3-benzothiazol-2-ylamino)-4-methyl-6,7-dihydro-5H-pyrido[2,3-c]pyridazin-8-yl]-3-[1-[[3-[3-[2-hydroxyethyl(methyl)amino]propyl]-5,7-dimethyl-1-adamantyl]methyl]-5-methyl-pyrazol-4-yl]pyridine-2-carboxylic acid] | 1.3 | 1.12 | 1.21
12 | COCCCN(C)CCCC12CC3(C)CC(C)(C1)CC(Cn1ncc(-c4ccc(N5CCCc6c5nnc(Nc5nc7ccccc7s5)c6C)nc4C(=O)O)c1C)(C3)C2 [P50, 6-[3-(1,3-benzothiazol-2-ylamino)-4-methyl-6,7-dihydro-5H-pyrido[2,3-c]pyridazin-8-yl]-3-[1-[[3-[3-[3-methoxypropyl(methyl)amino]propyl]-5,7-dimethyl-1-adamantyl]methyl]-5-methyl-pyrazol-4-yl]pyridine-2-carboxylic acid] | 0.55 | 0.21 | 0.38
13 | COCCCNCCCC12CC3(C)CC(C)(C1)CC(Cn1ncc(-c4ccc(N5CCCc6c5nnc(Nc5nc7ccccc7s5)c6C)nc4C(=O)O)c1C)(C3)C2 [P51, 6-[3-(1,3-benzothiazol-2-ylamino)-4-methyl-6,7-dihydro-5H-pyrido[2,3-c]pyridazin-8-yl]-3-[1-[[3-[3-(3-methoxypropylamino)propyl]-5,7-dimethyl-1-adamantyl]methyl]-5-methyl-pyrazol-4-yl]pyridine-2-carboxylic acid] | 1.97 | 2.83 | 2.4
14 | Cc1c(Nc2nc3ccccc3s2)nnc2c1CCCN2c1ccc(-c2cnn(CC34CC5(C)CC(C)(CC(CCCN6CCCCCC6)(C5)C3)C4)c2C)c(C(=O)O)n1 [P52, 3-[1-[[3-[3-(azepan-1-yl)propyl]-5,7-dimethyl-1-adamantyl]methyl]-5-methyl-pyrazol-4-yl]-6-[3-(1,3-benzothiazol-2-ylamino)-4-methyl-6,7-dihydro-5H-pyrido[2,3-c]pyridazin-8-yl]pyridine-2-carboxylic acid] | 0.73 | 0.38 | 0.555
15 | Cc1c(Nc2nc3ccccc3s2)nnc2c1CCCN2c1ccc(-c2cnn(CC34CC5(C)CC(C)(CC(CCCNCC(=O)O)(C5)C3)C4)c2C)c(C(=O)O)n1 [P53, 6-[3-(1,3-benzothiazol-2-ylamino)-4-methyl-6,7-dihydro-5H-pyrido[2,3-c]pyridazin-8-yl]-3-[1-[[3-[3-(carboxymethylamino)propyl]-5,7-dimethyl-1-adamantyl]methyl]-5-methyl-pyrazol-4-yl]pyridine-2-carboxylic acid] | 37.7 | 35 | 36.4
16 | Cc1c(Nc2nc3ccccc3s2)nnc2c1CCCN2c1ccc(-c2cnn(CC34CC5(C)CC(C)(CC(CCCNCCC(=O)O)(C5)C3)C4)c2C)c(C(=O)O)n1 [P54, 6-[3-(1,3-benzothiazol-2-ylamino)-4-methyl-6,7-dihydro-5H-pyrido[2,3-c]pyridazin-8-yl]-3-[1-[[3-[3-(2-carboxyethylamino)propyl]-5,7-dimethyl-1-adamantyl]methyl]-5-methyl-pyrazol-4-yl]pyridine-2-carboxylic acid] | 10.7 | 11.8 | 11.2
